Source: US12474327B2, “Metabolic profiling for the diagnosis of a subset of idiopathic autism spectrum disorder patients, ADS Phenotype 1” (STALICLA SA, priority 2018, dated 2025)

Legend:
[1] = tested on: ASD Phenotype 1 lymphoblastoid cell lines (LCLs); assay: Energy production capacity (NADH, tetrazolium colorimetric assay, Biolog Phenotype Mammalian MicroArrays); type: cell-based, human
Method: (§1) The data reported in the present patent were generated from lymphoblastoid cell lines (LCLs) generated from lymphocytes from peripheral blood. Tubes containing anticoagulant citrate dextrose (ACD) were used to collect blood samples via venipuncture, in order to ensure that the blood cells remained metabolically active. The tubes were kept at room temperature and processed within 24 hours.
(§2) Cell lines were obtained by immortalization of lymphocytes from blood samples using Epstein-Barr virus. The lymphoblastoid cell lines were harvested in Sigma RPMI-1640 with 75 mL fetal bovine serum from Atlanta Biological (Lawrenceville, GA, USA) and 5 mL L-Glutamine and 5 mL antibiotic/antimycotic from Sigma-Aldrich (St. Louis, MO, USA).
(§3) Energy production of cells was measured using commercially available Phenotype Mammalian MicroArrays (PM-Ms, Biolog, Hayward, CA, USA).
(§4) The compound in each well was designed to be used by the cells, either as the sole energy source or as the metabolic effector influencing the utilization of an energy source (D-glucose) added in the cell suspension. The production of NADH per well was monitored using a colorimetric redox dye chemistry (Bochner et al. Assay of the multiple energy-producing pathways of mammalian cells. PLoS One 2011, 6(3):e18147). Before plating, cell viability and number were assessed utilizing a BioRad cell counter and a trypan blue dye.
(§5) The concentration of live cells required for plating was 4×10^5 cells/mL, corresponding to 20,000 cells per well in a volume of 50 μL. Only cell lines with viability of 55% or above were utilized for the experiments and, in order to minimize artifacts and biases due to prolonged cell culturing of transformed cells, LCLs were not been utilized if they had reached 15 passages. Cells were incubated for 48 h at 37° C. in 5% CO2, using the modified Biolog IF-M1 medium.
(§6) The Biolog IF-M1 medium was modified for plates PM-M1 by adding the following to 100 mL of Biolog IF-M1: 1.1 mL of 100× penicillin/streptomycin solution, 0.16 mL of 200 mM glutamine (final concentration 0.3 mM), and 5.3 mL of Fetal Bovine Serum (FBS, final concentration 5%). For plates PM-M6, 5.5 mM α-D-glucose was added instead of FBS.
(§7) After this first incubation, Biolog Redox Dye Mix MB was added (10 μL/well) and the plates were incubated under the same conditions for an additional 24 hours. As the cells metabolized the energy source, tetrazolium dye in the media was reduced, producing a purple color according to the amount of NADH generated.
(§8) For the last 24 hours of the experiment, plates were incubated in the Omnilog system, which collects optical density readings every 15 minutes, generating 96 data-points for each well. The system also elaborated the kinetic curve for the metabolic reaction in each well and extrapolated parameters such as slope, highest point, endpoint, area under the curve (AUC), and lag. The system performed parametric analysis by comparing kinetic curves of cases versus controls, both as individual sample or as cohorts.
(§9) At the end of the 24-hour incubation, plates were analyzed utilizing a microplate reader with readings at 590 and 750 nm. The first value (A590) indicated the highest absorbance peak of the redox dye and the second value (A750) gave a measure of the background noise. The relative absorbance (A590-750) was calculated per well.
(§10) Metabolic profiles of the same cell lines were then assessed after stimulation of the Nrf2 signaling pathway aiming to reproduce in control and Non-Ph1 cells the activation of the hub that occurs constitutively in ASD Ph1. In order to achieve the stimulation of the Nrf2 pathway, the cells were exposed to sulforaphane.

[2] = tested on: control lymphoblastoid cell lines (LCLs); assay: as above; type: cell-based, human; details: for energy production capacity: in presence of D-Glucose
Method: as §1, §2, §3, §4, §5, §6, §7, §8, §9, §10

[3] = tested on: ASD non-Phenotype 1 lymphoblastoid cell lines (LCLs); assay: as above; type: cell-based, human; details: for energy production capacity: ASD non-Phenotype 1 LCLs, in presence of D-Glucose
Method: as §1, §2, §3, §4, §5, §6, §7, §8, §9, §10

[4] = tested on: ASD Phenotype 1 patients; details: short oral treatment, described in EP 17200185.1; cited from earlier work
[5] = Singh K et al., PNAS 2014; cited from earlier work
[6] = tested on: core symptoms of ASD; details: ASD patients treated in Singh et al.; cited from earlier work

| SMILES | effect on the dibutyryl cAMP-induced increase of energy production capacity ([1]; ASD Ph1 cells, D-Glucose, treated with sulforaphane) | effect on energy production capacity ([1]; ASD Phenotype 1 cell lines, various carbon sources of energy (FIG. 1, FIG. 2: D-Glucose, maltose), exposed to sulforaphane) | energy production capacity ([2]; control LCLs) | metabolic profile (PCA of energy production capacity) ([2]; control cells exposed to sulforaphane, various carbon sources of energy) | energy production capacity [3] | metabolic profile (PCA of energy production capacity) ([3]; ASD non-Phenotype 1 cells exposed to sulforaphane, various carbon sources of energy) | behavioral response (ADI-r SI, ADI-r C or ADI-r RI) [4] | tolerability of administration to humans [5] | toxicity [5] | core symptoms of ASD (as measured by the ADOS 2) [6] | energy production capacity ([1]; Phenotype 1 cells, in the presence of D-Glucose, increasing concentrations) | energy production capacity after pretreatment with sulforaphane (Nrf2 activation) ([2]; control LCLs, in presence of glucose, addition of dibutyryl cAMP) | energy production capacity after pretreatment with sulforaphane (Nrf2 activation) ([3]; ASD non-Ph1 LCLs, in presence of glucose) |
| --- | --- | --- | --- | --- | --- | --- | --- | --- | --- | --- | --- | --- | --- |
| C[S@@+]([O-])CCCCN=C=S [sulforaphane, 1-isothiocyanato-4R-(methylsulfinyl)butane] | did not modify the response to dibutyryl cAMP | lack of effect | produced a decrease | comparable to Ph1 cells at baseline | produced a decrease | comparable to Ph1 cells at baseline | negative behavioral response | well tolerated | low toxicity | significant improvements | – | – | – |
| CCCC(=O)Nc1ncnc2c1ncn2[C@@H]1O[C@@H]2COP(=O)(O)O[C@H]2[C@H]1OC(=O)CCC [dibutyryl cAMP, dibutyril-cyclic adenosine monophosphate] | – | – | no effect | – | no effect | – | – | – | – | – | increased | restituted | restituted |
